Measured values taken from patent US8808760B2, “Extract from palm leaves and a method for producing the same” (Universiti Putra Malaysia, priority 2007, dated 2014).

Columns and labels:
[1] = system: SHR (spontaneously/genetically hypertensive rats); assay: Morphology (body, kidney, heart weight), SHR; assay type: in vivo; details: mean ± SEM
[2] = system: SHR (spontaneous/genetically hypertensive animals); assay: Organ antioxidant enzymes (kidney, heart, brain), SHR; assay type: in vivo, rats
From the text: SOD, GSH-Px, and CAT is the first line of antioxidative enzyme defense against oxidative stress, converting reactive oxygen to hydrogen peroxide and water.

[3] = system: SHR (spontaneous/genetically hypertensive animals); assay: Erythrocyte antioxidant enzymes (SOD, GSH-Px, CAT), SHR; assay type: in vivo, rats
From the text: SOD, GSH-Px, and CAT is the first line of antioxidative enzyme defense against oxidative stress, converting reactive oxygen to hydrogen peroxide and water. SOD, GSH-Px, and CAT […] activity indicate […] oxidative stress in hypertensive animals supplemented with oil palm leaves extract.

normotensive animals [4] = assay: Morphology (body, kidney, heart weight), normotensive rats; assay type: in vivo; details: mean ± SEM
From the text: (§1) The organ protective properties of the palm leaves extract and palm leaves functional ingredients on heart, and kidneys are shown in the morphology Table 4 below. […] Kidney/BW were similar in all groups. […] However, in L-NAME+captopril rats had lower Heart/BW ratio versus L-NAME.

[5] = system: L-NAME induced hypertensive rats; assay: Morphology (body, kidney, heart weight), L-NAME rats; assay type: in vivo; details: mean ± SEM
From the text: as §1

normotensive animals [6] = assay: Erythrocyte antioxidant enzymes (SOD, GSH-Px, CAT), normotensive animals; assay type: in vivo, rats
L-NAME rats = assay: Serum nitric oxide, L-NAME rats; assay type: in vivo; design: unit not given here
[7] = system: SHR (spontaneously hypertensive rats); assay: Serum nitric oxide, SHR; assay type: in vivo; design: unit not given here
normotensive rats = assay: Serum nitric oxide, normotensive rats; assay type: in vivo; design: unit not given here

## C[C@H](CS)C(=O)N1CCC[C@H]1C(=O)O [Captopril, captopril]
[1]
  Final body weight: 259.09 ± 5.53 g
  Heart: 1.16 ± 0.07 g
  Heart/Body weight: 4.533 ± 0.0002 mg/g
  Kidney: 2.074 ± 0.09 g
  Kidney/Body Weight: 8.139 ± 0.0004 mg/g
[2]; Heart
  Organ Catalase: 4.08 ± 0.458 k/mg protein
  Organ CuZn-SOD: 0.78 ± 0.301 U/mg protein
  Organ GPx: 3.20 ± 0.23 U/mg protein
[2]; Kidney
  Organ Catalase: 25.96 ± 2.04 k/mg protein
  Organ CuZn-SOD: 0.80 ± 0.199 U/mg protein
  Organ GPx: 2.02 ± 0.184 U/mg protein
[2]; brain
  Organ Catalase: 1.96 ± 0.27 k/mg protein
  Organ CuZn-SOD: 1.26 ± 0.097 U/mg protein
  Organ GPx: 2.87 ± 0.360 U/mg protein
[3]; Week 0
  Erythrocyte Catalase: 0.019 ± 0.0007 k/ml
  Erythrocyte CuZn-SOD: 0.019 ± 0.0012 U/ml
  Erythrocyte Glutathione Peroxidase: 31.47 ± 0.94
[3]; Week 6
  Erythrocyte Catalase: 0.017 ± 0.0003 k/ml
  Erythrocyte CuZn-SOD: 0.009 ± 0.0012 U/ml
  Erythrocyte Glutathione Peroxidase: 12.69 ± 2.47
[3]; Week 8
  Erythrocyte Catalase: 0.017 ± 0.0004 k/ml
  Erythrocyte CuZn-SOD: 0.011 ± 0.0004 U/ml
  Erythrocyte Glutathione Peroxidase: 28.77 ± 2.05
[3]; Week 12
  Erythrocyte Catalase: 0.016 ± 0.0003 k/ml
  Erythrocyte CuZn-SOD: 0.012 ± 0.0007 U/ml
  Erythrocyte Glutathione Peroxidase: 34.63 ± 2.2
Normotensive animals [4]
  Final body weight: 291.4 ± 8.56 g
  Heart: 1.02 ± 0.04 g
  Heart/Body weight: 3.558 ± 0.0002 mg/g
  Kidney: 2.140 ± 0.07 g
  Kidney/Body Weight: 7.370 ± 0.0003 mg/g
[5]
  Final body weight: 296.4 ± 5.97 g
  Heart: 0.91 ± 0.07 g
  Heart/Body weight: 3.096 ± 0.0003 mg/g
  Kidney: 2.017 ± 0.07 g
  Kidney/Body Weight: 6.822 ± 0.0002 mg/g
Normotensive animals [6]; Week 0
  Erythrocyte Catalase: 0.014 ± 0.0006 k/ml
  Erythrocyte CuZn-SOD: 0.014 ± 0.0010 U/ml
  Erythrocyte Glutathione Peroxidase: 16.5 ± 0.76
Normotensive animals [6]; Week 6
  Erythrocyte Catalase: 0.013 ± 0.0003 k/ml
  Erythrocyte CuZn-SOD: 0.022 ± 0.0006 U/ml
  Erythrocyte Glutathione Peroxidase: 21.1 ± 5.05
Normotensive animals [6]; Week 8
  Erythrocyte Catalase: 0.014 ± 0.0005 k/ml
  Erythrocyte CuZn-SOD: 0.015 ± 0.0019 U/ml
  Erythrocyte Glutathione Peroxidase: 9.3 ± 1.24
Normotensive animals [6]; Week 12
  Erythrocyte Catalase: 0.013 ± 0.0008 k/ml
  Erythrocyte CuZn-SOD: 0.018 ± 0.0006 U/ml
  Erythrocyte Glutathione Peroxidase: 26.2 ± 6.90
L-NAME rats; Week 0
  nitric oxide values measured in serum: 0.402 ± 0.008
L-NAME rats; Week 6
  nitric oxide values measured in serum: 0.585 ± 0.082
L-NAME rats; Week 8
  nitric oxide values measured in serum: 0.742 ± 0.123
L-NAME rats; Week 12
  nitric oxide values measured in serum: 0.44 ± 0.072
[7]; Week 0
  nitric oxide values measured in serum: 0.230 ± 0.02
[7]; Week 6
  nitric oxide values measured in serum: 0.425 ± 0.05
[7]; Week 8
  nitric oxide values measured in serum: 0.438 ± 0.08
[7]; Week 12
  nitric oxide values measured in serum: 0.572 ± 0.02 +
Normotensive rats; Week 0
  nitric oxide values measured in serum: 0.381 ± 0.023
Normotensive rats; Week 6
  nitric oxide values measured in serum: 0.573 ± 0.024
Normotensive rats; Week 8
  nitric oxide values measured in serum: 0.455 ± 0.060
Normotensive rats; Week 12
  nitric oxide values measured in serum: 0.525 ± 0.071
